Data set [1] relates to PHA-stimulated human PBMCs. The experiment in a line: Cytotoxicity assay (MTT) in uninfected PBMCs. Type of data set: cell-based.
For the next data set, the system named is HIV-1NL4-3. Briefly: In vitro antiviral assay (p24 ELISA) in PHA-stimulated human PBMCs. Conditions: for IC50: read-out: NL4-3 Antiviral (PBMC) IC50; for IC90: read-out: NL4-3 Antiviral (PBMC) IC90. In general terms: An ELISA detects its analyte on a solid surface through an enzyme-linked reagent.
[2] abbreviates: Human immunodeficiency virus 1, NL43, PBMC, in Homo sapiens, 168 h.
Where [3] appears, read: PHA-stimulated human PBMCs, 7 days, p24 ELISA.

Broadly, the IC50 is the midpoint of a concentration-inhibition curve. As usually defined, the IC90 is the concentration needed for an effect of 90%. A word on the CC50: it is the concentration giving 50% cytotoxicity.

Read-outs that look alike come from different tables or passages of the source.

With `COc1cnc(-n2cnc(C)n2)c2[nH]cc(C(=O)C(=O)N3CCN(C(=O)c4ccccc4)CC3)c12` [BMS-626529], the “cytotoxicity better than NBD-14189” value in data set [1] (PBMC, compared with NBD-14189) is given as “about 3 fold”. For the same compound, in the data set with HIV-1NL4-3 (setting [2]), the IC50 amounted to 280 nM and the IC90 was more than 10000 nM.

Turning to `C#C[C@]1(CO)O[C@@H](n2cnc3c(N)nc(F)nc32)C[C@@H]1O` [EFdA], the half-maximal cytotoxic concentration (CC50) in data set [1] (uninfected PBMCs, MTT, day 7, read-out: PBMC Toxicity CC50) turned out to be 23000 nM. Further, the CC90 in data set [1] (uninfected PBMCs, MTT, day 7, read-out: PBMC Toxicity CC90) is more than 100000 nM. The “SI CC50/IC50” value with HIV-1NL4-3 (PBMC CC50 / NL4-3 IC50) is on record as 13,000. In the data set on HIV-1NL4-3 (setting [3]), the IC50 amounted to 1.7 nM and the IC90 was more than 66 nM.

The record behind these values is publication PMC9611370 (Viruses, 2022).
